Values quoted from earlier work as cited in patent US6630467B2, “Pyridone-fused azabicyclic- or cytisine derivatives, their preparation and their use in addiction therapy” (Pfizer Inc., priority 1996, dated 2003).

Details: in vivo

Question: With O=c1cccc2n1CC1CNCC2C1 (centres unmarked) [cytisine, 1,2,3,4,5,6-hexahydro-1,5-methano-pyrido[1,2-a][1,5]diazocin-8-one] as the compound, how does the “penetration of the brain barrier” value read?
Answer: inability to penetrate the brain barrier

Question: And the potency?
Answer: not high
